{"source": "patent US20200138985A1", "about": "“KIT FOR LABELING A PROSTATE-SPECIFIC MEMBRANE ANTIGEN LIGAND WITH A RADIOACTIVE ISOTOPE” (Isotopia Molecular Imaging Ltd., priority 2015, published 2020)", "origin": "cited, not measured here", "biological_target": "T1, PSMA (Homo sapiens, UniProt Q04609)", "T1 construct": "In cell research with PSMA-positive androgen-insensitive LNCaP-C4-2 cells; endogenous in cells; host or cells: LNCaP-C4-2 cells", "T1 sequence (Q04609 whole entry)": "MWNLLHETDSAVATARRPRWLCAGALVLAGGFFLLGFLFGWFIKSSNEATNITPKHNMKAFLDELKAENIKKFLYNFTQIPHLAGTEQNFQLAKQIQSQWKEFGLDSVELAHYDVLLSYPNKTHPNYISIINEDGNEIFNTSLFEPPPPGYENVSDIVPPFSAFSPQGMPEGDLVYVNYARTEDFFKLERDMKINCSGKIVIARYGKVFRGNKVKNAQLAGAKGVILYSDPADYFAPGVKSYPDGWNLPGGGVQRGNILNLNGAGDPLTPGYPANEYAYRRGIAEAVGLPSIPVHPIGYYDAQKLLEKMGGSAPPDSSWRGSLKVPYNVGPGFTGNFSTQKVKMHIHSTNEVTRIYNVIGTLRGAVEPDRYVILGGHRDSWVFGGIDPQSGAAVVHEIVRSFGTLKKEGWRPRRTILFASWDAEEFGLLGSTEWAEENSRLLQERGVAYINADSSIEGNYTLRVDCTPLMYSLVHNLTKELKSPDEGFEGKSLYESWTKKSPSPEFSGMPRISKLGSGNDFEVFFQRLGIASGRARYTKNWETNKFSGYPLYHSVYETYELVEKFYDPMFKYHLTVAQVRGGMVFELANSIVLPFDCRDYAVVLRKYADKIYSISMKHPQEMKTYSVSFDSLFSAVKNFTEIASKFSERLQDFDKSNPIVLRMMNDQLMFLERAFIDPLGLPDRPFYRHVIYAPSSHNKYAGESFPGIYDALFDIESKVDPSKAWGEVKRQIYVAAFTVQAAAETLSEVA", "conditions": "PSMA-positive androgen-insensitive LNCaP-C4-2 cells", "data": [{"substance": "(5S,8S,22S,26S)-1-amino-5,8-dibenzyl-4,7,10,19,24-pentaoxo-3,6,9,18,23,25-hexaazaoctacosane-22,26,28-tricarboxylic acid (DUPA-Pep), conjugated with 1,4,7,10-tetraazacyclododecane-N,N,N′,N″-tetraacetic acid (DOTA)", "values": [{"measurement": "Kd", "result": "21.6 ± 0.4", "unit": "nM"}]}, {"substance": "cyclohexyl-diethylene triamine pentaacetic acid-(5S,8S,22S,26S)-1-amino-5,8-dibenzyl-4,7,10,19,24-pentaoxo-3,6,9,18,23,25-hexaazaoctacosane-22,26,28- tricarboxylic acid [CHX-A″-DTPA-DUPA-Pep]", "values": [{"measurement": "Kd", "result": "≤ 14.7", "unit": "nM"}]}]}
